What was measured:
[1] = test system: recombinant NL4-3 virus (nef section replaced with Renilla luciferase gene) in MT-2 cells; assay: HIV cell culture assay (antiviral activity, luciferase readout); assay type: cell-based; conditions: Renilla, NL43, MT-2 cells infected for 4-5 days with recombinant NL4-3 Renilla luciferase virus, serial dilutions of compound
Method: HIV cell culture assay—MT-2 cells, 293T cells and the proviral DNA clone of NL4-3 virus were obtained from the NIH AIDS Research and Reference Reagent Program. MT-2 cells were propagated in RPMI 1640 media supplemented with 10% heat inactivated fetal bovine serum (FBS), 100 μg/ml penicillin G and up to 100 units/mL streptomycin. The 293T cells were propagated in DMEM media supplemented with 10% heat inactivated FBS, 100 μg/mL penicillin G and 100 μg/mL streptomycin. A recombinant NL4-3 proviral clone, in which a section of the nef gene was replaced with the Renilla luciferase gene, was used to make the reference virus used in these studies. The recombinant virus was prepared through transfection of the recombinant NL4-3 proviral clone into 293T cells using Transit-293 Transfection Reagent from Mirus Bio LLC (Madison, Wis.). Supernatent was harvested after 2-3 days and the amount of virus present was titered in MT-2 cells using luciferase enzyme activity as a marker by measuring luciferase enzyme activity. Luciferase was quantitated using the EnduRen Live Cell Substrate from Promega (Madison, Wis.). Antiviral activities of compounds toward the recombinant virus were quantified by measuring luciferase activity in MT-2 cells infected for 4-5 days with the recombinant virus in the presence of serial dilutions of the compound.
The 50% effective concentration (EC50) was calculated by using the exponential form of the median effect equation where (Fa)=1/[1+(ED50/drug conc.)^m] (Johnson VA, Byington RT. Infectivity Assay. In Techniques in HIV Research. ed. Aldovini A, Walker BD. 71-76. New York: Stockton Press. 1990). Curve fitting and analysis were performed with ActivityBase XE Runner software version 9.1.0.4 using model 203 (ID Business Solutions, LTD, Guildford, UK).

[2] = Compound cytotoxicity, XTT-based colorimetric assay; assay type: cell-based; conditions: human, uninfected MT2 cells, day 4, XTT
Method: Compound cytotoxicity and the corresponding CC50 values were determined using the same protocol as described in the antiviral assay except that uninfected cells were used. Cytotoxicity was assessed on day 4 in uninfected MT2 cells by using a XTT (2,3-bis[2-Methoxy-4-nitro-5-sulfophenyl]-2H-tetrazolium-5-carboxyanilide inner salt)-based colorimetric assay (Sigma-Aldrich, St Louis, Mo.).

Compound	EC50 [1] [nM]	CC50 at 4 day [2] [nM]
O=C(Cn1nc(C(F)F)c2c1C(F)(F)[C@@H]1C[C@H]21)N[C@@H](Cc1cc(F)cc(F)c1)c1nc2cc(-c3cccc(F)c3F)ccc2c(=O)n1-c1ccc(S(=O)(=O)N2CCOCC2)cc1 [Example 149, 2-((3bS,4aR)-3-(difluoromethyl)-5,5-difluoro-3b,4,4a,5-tetrahydro-1H-cyclopropa[3,4]cyclopenta[1,2-c]pyrazol-1-yl)-N-((S)-2-(3,5-difluorophenyl)-1-(7-(2,3-difluorophenyl)-3-(4-(morpholinosulfonyl)phenyl)-4-oxo-3,4-dihydroquinazolin-2-yl)ethyl)acetamide]	8.1	> 1000
Cc1cc(Cl)ccc1-c1ccc2c(=O)n(-c3ccc(S(=O)(=O)N4CCOCC4)cc3)c([C@H](Cc3cc(F)cc(F)c3)NC(=O)Cn3ccc(C4CC4)n3)nc2c1 [Example 50, (S)-N-(1-(7-(4-chloro-2-methylphenyl)-3-(4-(morpholinosulfonyl)phenyl)-4-oxo-3,4-dihydroquinazolin-2-yl)-2-(3,5-difluorophenyl)ethyl)-2-(3-cyclopropyl-1H-pyrazol-1-yl)acetamide]	70	> 1000
Cc1ccccc1-c1ccc2c(=O)n(-c3ccc(Cl)c4c(NS(C)(=O)=O)nn(C)c34)c([C@H](Cc3cc(F)cc(F)c3)NC(=O)Cn3nc(C(F)F)c4c3C(F)(F)[C@@H]3C[C@H]43)nc2c1 (atropisomer, axis not shown; (aR)) [Example 88, N-((S)-1-(3-(4-chloro-1-methyl-3-(methylsulfonamido)-1H-indazol-7-yl)-4-oxo-7-(o-tolyl)-3,4-dihydroquinazolin-2-yl)-2-(3,5-difluorophenyl)ethyl)-2-((3bS,4aR)-3-(difluoromethyl)-5,5-difluoro-3b,4,4a,5-tetrahydro-1H-cyclopropa[3,4]cyclopenta[1,2-c]pyrazol-1-yl)acetamide]	0.73	> 1000
Cc1nn(C)c(C)c1-c1ccc2c(=O)n(-c3ccc(Cl)c4c(NS(C)(=O)=O)nn(C)c34)c([C@H](Cc3cc(F)cc(F)c3)NC(=O)Cn3nc(C(F)F)c4c3C(F)(F)[C@@H]3C[C@H]43)nc2c1 (atropisomer, axis not shown; (aR)) [Example 60, N-((S)-1-(3-(4-chloro-1-methyl-3-(methylsulfonamido)-1H-indazol-7-yl)-4-oxo-7-(1,3,5-trimethyl-1H-pyrazol-4-yl)-3,4-dihydroquinazolin-2-yl)-2-(3,5-difluorophenyl)ethyl)-2-((3bS,4aR)-3-(difluoromethyl)-5,5-difluoro-3b,4,4a,5-tetrahydro-1H-cyclopropa[3,4]cyclopenta[1,2-c]pyrazol-1-yl)acetamide]	0.32	> 1000
CC(C)c1ccc(-c2ccc3c(=O)n(-c4ccc(Cl)c5c(NS(C)(=O)=O)nn(C)c45)c([C@H](Cc4cc(F)cc(F)c4)NC(=O)Cn4nc(C(F)F)c5c4C(F)(F)[C@@H]4C[C@H]54)nc3c2)cc1 (atropisomer, axis not shown; (aR)) [Example 59, N-((S)-1-(3-(4-chloro-1-methyl-3-(methylsulfonamido)-1H-indazol-7-yl)-7-(4-isopropylphenyl)-4-oxo-3,4-dihydroquinazolin-2-yl)-2-(3,5-difluorophenyl)ethyl)-2-((3bS,4aR)-3-(difluoromethyl)-5,5-difluoro-3b,4,4a,5-tetrahydro-1H-cyclopropa[3,4]cyclopenta[1,2-c]pyrazol-1-yl)acetamide]	5.3	> 1000
Cn1nc(NS(C)(=O)=O)c2c(Cl)ccc(-n3c([C@H](Cc4cc(F)cc(F)c4)NC(=O)Cn4nc(C(F)F)c5c4C(F)(F)[C@@H]4C[C@H]54)nc4cc(-c5ccccc5CO)ccc4c3=O)c21 (atropisomer, axis not shown; (aR)) [Example 116, N-((S)-1-(3-(4-chloro-1-methyl-3-(methylsulfonamido)-1H-indazol-7-yl)-7-(2-(hydroxymethyl)phenyl)-4-oxo-3,4-dihydroquinazolin-2-yl)-2-(3,5-difluorophenyl)ethyl)-2-((3bS,4aR)-3-(difluoromethyl)-5,5-difluoro-3b,4,4a,5-tetrahydro-1H-cyclopropa[3,4]cyclopenta[1,2-c]pyrazol-1-yl)acetamide]	0.14	> 500
O=C(Cn1nc(C(F)F)c2c1C(F)(F)[C@@H]1C[C@H]21)N[C@@H](Cc1cc(F)cc(F)c1)c1nc2cc(-c3ccncc3)ccc2c(=O)n1-c1ccc(S(=O)(=O)N2CCOCC2)cc1 [Example 69, 2-((3bS,4aR)-3-(difluoromethyl)-5,5-difluoro-3b,4,4a,5-tetrahydro-1H-cyclopropa[3,4]cyclopenta[1,2-c]pyrazol-1-yl)-N-((S)-2-(3,5-difluorophenyl)-1-(3-(4-(morpholinosulfonyl)phenyl)-4-oxo-7-(pyridin-4-yl)-3,4-dihydroquinazolin-2-yl)ethyl)acetamide]	1	> 1000
Cc1nccnc1-c1ccc2c(=O)n(-c3ccc(Cl)c4c(NS(C)(=O)=O)nn(CC(F)F)c34)c([C@H](Cc3cc(F)cc(F)c3)NC(=O)Cn3nc(C(F)F)c4c3C(F)(F)[C@@H]3C[C@H]43)nc2c1 (atropisomer, axis not shown; (aR)) [Example 125, N-((S)-1-(3-(4-chloro-1-(2,2-difluoroethyl)-3-(methylsulfonamido)-1H-indazol-7-yl)-7-(3-methylpyrazin-2-yl)-4-oxo-3,4-dihydroquinazolin-2-yl)-2-(3,5-difluorophenyl)ethyl)-2-((3bS,4aR)-3-(difluoromethyl)-5,5-difluoro-3b,4,4a,5-tetrahydro-1H-cyclopropa[3,4]cyclopenta[1,2-c]pyrazol-1-yl)acetamide]	0.054	> 500
O=C(Cn1ccc(C2CC2)n1)N[C@@H](Cc1cc(F)cc(F)c1)c1nc2cc(-c3ccccc3)ccc2c(=O)n1-c1ccc(S(=O)(=O)N2CCOCC2)cc1 [Example 144, (S)-2-(3-cyclopropyl-1H-pyrazol-1-yl)-N-(2-(3,5-difluorophenyl)-1-(3-(4-(morpholinosulfonyl)phenyl)-4-oxo-7-phenyl-3,4-dihydroquinazolin-2-yl)ethyl)acetamide]	16	> 500
CCS(=O)(=O)c1ccccc1-c1ccc2c(=O)n(-c3ccc(Cl)c4c(NS(C)(=O)=O)nn(C)c34)c([C@H](Cc3cc(F)cc(F)c3)NC(=O)Cn3nc(C(F)F)c4c3C(F)(F)[C@@H]3C[C@H]43)nc2c1 (atropisomer, axis not shown; (aR)) [Example 119, N-((S)-1-(3-(4-chloro-1-methyl-3-(methylsulfonamido)-1H-indazol-7-yl)-7-(2-(ethylsulfonyl)phenyl)-4-oxo-3,4-dihydroquinazolin-2-yl)-2-(3,5-difluorophenyl)ethyl)-2-((3bS,4aR)-3-(difluoromethyl)-5,5-difluoro-3b,4,4a,5-tetrahydro-1H-cyclopropa[3,4]cyclopenta[1,2-c]pyrazol-1-yl)acetamide]	0.1	> 500
O=C(Cn1nc(C(F)F)c2c1C(F)(F)[C@@H]1C[C@H]21)N[C@@H](Cc1cc(F)cc(F)c1)c1nc2cc(-c3cccnc3)ccc2c(=O)n1-c1ccc(S(=O)(=O)N2CCOCC2)cc1 [Example 24, 2-((3bS,4aR)-3-(difluoromethyl)-5,5-difluoro-3b,4,4a,5-tetrahydro-1H-cyclopropa[3,4]cyclopenta[1,2-c]pyrazol-1-yl)-N-((S)-2-(3,5-difluorophenyl)-1-(3-(4-(morpholinosulfonyl)phenyl)-4-oxo-7-(pyridin-3-yl)-3,4-dihydroquinazolin-2-yl)ethyl)acetamide]	4.3	> 1000
Cn1nc(NS(C)(=O)=O)c2c(Cl)ccc(-n3c([C@H](Cc4cc(F)cc(F)c4)NC(=O)Cn4nc(C(F)F)c5c4C(F)(F)[C@@H]4C[C@H]54)nc4cc(-c5cc(F)c(F)cc5F)ccc4c3=O)c21 [Example 171, N-((S)-1-(3-(4-chloro-1-methyl-3-(methylsulfonamido)-1H-indazol-7-yl)-4-oxo-7-(2,4,5-trifluorophenyl)-3,4-dihydroquinazolin-2-yl)-2-(3,5-difluorophenyl)ethyl)-2-((3bS,4aR)-3-(difluoromethyl)-5,5-difluoro-3b,4,4a,5-tetrahydro-1H-cyclopropa[3,4]cyclopenta[1,2-c]pyrazol-1-yl)acetamide]	0.48	–

Source: patent US11505543B2, “4-oxo-3,4-dihydroquinazoline compounds as inhibitors of human immunodeficiency virus replication” (VIIV HEALTHCARE UK (NO.5) LIMITED, priority 2018, dated 2022)
